Measured values as given in ChEMBL document CHEMBL4390707, “Synthesis and comparison of substituted 1,2,3-dithiazole and 1,2,3-thiaselenazole as inhibitors of the feline immunodeficiency virus (FIV) nucleocapsid protein as a model for HIV infection” (Bioorg Med Chem Lett, 2019).

What was measured:
[1] = Cytotoxicity against cat CRFK cells measured after 24 hrs by MTT assay; format: cell-based, Felis catus
[2] = Cytotoxicity against cat FL-4 cells measured after 7 days by MTT assay; format: cell-based, Felis catus
[3] = Inhibition of nucleocapsin protein in FIV infected in cat FL-4 cells assessed as reduction in viral RNA replication measured after 7 days by qRT-PCR analysis; format: cell-based; conditions: Feline immunodeficiency virus, FL-4, 168 h
[4] = Therapeutic index, ratio of CC50 for cat FL-4 cells to EC50 for inhibition of nucleocapsin protein in FIV infected in cat FL-4 cells; format: toxicity, cell-based; conditions: FL-4 cells (FIV infected for EC50), read-out: Ratio CC50/EC50

With Clc1c2ssnc-2c2ccccc12 the CC50 at 24 h [1] was over 100 µM, the CC50 at 168 h [2] was 49 µM and the EC50 [3] was 1400 nM. For the same compound, the selectivity ratio [4] was 36.3.

CCOC(=O)c1c2nssc-2c(Cl)c1Cl showed a CC50 at 24 h [1] of over 100 µM, a CC50 at 168 h [2] of 3.5 µM and an EC50 [3] of 310 nM. The selectivity ratio [4] was 11.4.

CCOC(=O)c1c2n[se]sc-2c(Cl)c1Cl showed a CC50 at 24 h [1] of over 100 µM, a CC50 at 168 h [2] of 5.1 µM and an EC50 [3] of 82 nM. It also gave a selectivity ratio [4] of 61.9.

Work on N#Cc1c2n[se]sc-2c(Cl)c1Cl yielded a CC50 at 24 h [1] of over 100 µM, a CC50 at 168 h [2] of 18 µM and an EC50 [3] of 3800 nM. For the same compound, the selectivity ratio [4] was 4.7.

Compound Clc1c2s[se]nc-2c2ccccc12 has a CC50 at 24 h [1] of 98 µM, a CC50 at 168 h [2] of 5.7 µM and an EC50 [3] of 1200 nM. For the same compound, the selectivity ratio [4] was 4.6.

With ClC1=C2SSN=C2c2ccccc2C(Cl)=C1Cl the CC50 at 24 h [1] was over 100 µM, the CC50 at 168 h [2] was 9.3 µM and the EC50 [3] was 3000 nM. It also gave a selectivity ratio [4] of 3.1.

In the case of c1ccc2c(c1)N=C1S[Se]N=C1O2, the CC50 at 24 h [1] is reported as over 100 µM, the CC50 at 168 h [2] is reported as 5.8 µM and the EC50 [3] is reported as 240 nM. For the same compound, the selectivity ratio [4] was 24.

For N#Cc1c2nssc-2c(Cl)c1Cl, the CC50 at 24 h [1] was over 100 µM, the CC50 at 168 h [2] was 39 µM and the EC50 [3] was 1500 nM. The selectivity ratio [4] was 26.8.

Work on ClC1=C2S[Se]N=C2c2ccccc2C(Cl)=C1Cl yielded a CC50 at 24 h [1] of over 100 µM, a CC50 at 168 h [2] of 0.83 µM and an EC50 [3] of 250 nM. It also gave a selectivity ratio [4] of 3.3.

In the case of c1ccc(-c2c3ssnc-3c3ccccc23)cc1, the CC50 at 24 h [1] is reported as over 100 µM, the CC50 at 168 h [2] is reported as over 100 µM and the EC50 [3] is reported as 25700 nM. It also gave a selectivity ratio [4] of over 4.

With c1ccc2c(c1)N=C1SSN=C1O2 the CC50 at 24 h [1] was over 100 µM, the CC50 at 168 h [2] was 57 µM and the EC50 [3] was 4000 nM. It also gave a selectivity ratio [4] of 14.

c1ccc(-c2c3s[se]nc-3c3ccccc23)cc1 showed a CC50 at 24 h [1] of 56 µM, a CC50 at 168 h [2] of 50 µM and an EC50 [3] of 260 nM. The selectivity ratio [4] was 194.

Compound Clc1c2nssc-2c(Cl)c1Cl has a CC50 at 24 h [1] of 68 µM, a CC50 at 168 h [2] of 6.1 µM and an EC50 [3] of 1600 nM. The selectivity ratio [4] was 3.8.

Compound Clc1c2n[se]sc-2c(Cl)c1Cl has a CC50 at 24 h [1] of 62 µM, a CC50 at 168 h [2] of 6.5 µM and an EC50 [3] of 1200 nM. It also gave a selectivity ratio [4] of 5.4.

With Cc1cn([C@H]2C[C@H](N=[N+]=[N-])[C@@H](CO)O2)c(=O)[nH]c1=O [ZIDOVUDINE] the CC50 at 24 h [1] was over 100 µM, the CC50 at 168 h [2] was over 100 µM and the EC50 [3] was 2700 nM. For the same compound, the selectivity ratio [4] was over 37.
